Laboratory results published in patent publication US9963462B2 (priority 2015, dated 2018).

Key:
[1] = target: SNAP-hSPR (sepiapterin reductase, SPR) (Homo sapiens, UniProt P35270); test: biochemical; format: binding; conditions: terbium labelled SNAP-hSPR / SSZ labelled SNAP-EGFP; read-out: hTR-FRET IC50
[2] = system: BH4 production in human peripheral blood mononuclear cells (PBMCs); test: hPBMC assay, inhibition of BH4 production by LC-MS (anti-CD3/anti-CD28 stimulated); format: cell-based; conditions: PBMC, read-out: hPBMC IC50
[3] = system: BH4 levels in SK-N-BE (2) cells; test: SKN-N-BE (2) cellular assay, BH4 levels by LC-MS; format: cell-based; conditions: Homo sapiens, SKNBE2, read-out: SK-N-BE(2) IC50, SK-N-BE (2) cells, BH4 levels by LC-MS

Chain of SNAP-hSPR (sepiapterin reductase, SPR) (P35270 whole entry): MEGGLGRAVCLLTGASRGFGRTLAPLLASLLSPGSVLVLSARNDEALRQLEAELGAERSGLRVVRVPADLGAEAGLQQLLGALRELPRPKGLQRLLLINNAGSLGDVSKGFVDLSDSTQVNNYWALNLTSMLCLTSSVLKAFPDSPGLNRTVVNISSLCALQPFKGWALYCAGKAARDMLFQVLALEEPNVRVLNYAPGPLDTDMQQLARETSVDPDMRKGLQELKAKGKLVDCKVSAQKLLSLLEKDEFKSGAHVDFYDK

Structure (SMILES)	IC50 [1] [nM]	IC50 [2] [nM]	IC50 [3] [nM]
O=C(c1cnn(-c2nn3c(F)ccc3c(=O)[nH]2)c1)N1CCC(C(F)(F)F)CC1 [Q-0525, 7-fluoro-2-(4-(4-(trifluoromethyl)piperidine-1-carbonyl)-1H-pyrazol-1-yl)pyrrolo[1,2-f][1,2,4]triazin-4(3H)-one]	1	24	19
Cc1c(C(=O)N2CC[C@@H](N(C)C(=O)OC(C)(C)C)C2)cnn1-c1nc2c(c(=O)[nH]1)CCC2 [Q-0571]	3	67	73
CCC(C#N)C1CCN(C(=O)c2cnn(-c3nc4c(c(=O)[nH]3)CCC4)c2C)CC1 (stereo not drawn) [Q-0572]	2	24	36
CCC1(C#N)CCN(C(=O)c2cnn(-c3nn4cccc4c(=O)[nH]3)c2C)CC1 [Q-0586]	2	130	200
Cc1c(C(=O)N2CCC(S(=O)(=O)c3ccc(F)c(F)c3)CC2)cnn1-c1nn2cccc2c(=O)[nH]1 [Q-0591]	3	45	100
Cc1c(C(=O)N2CCC3(CC2)CC3)cnn1-c1nc2c(c(=O)[nH]1)CCC2 [Q-0635]	2	54	100
Cc1c(C(=O)N2CCC3(CC2)CC(F)(F)C3)cnn1-c1nn2cccc2c(=O)[nH]1 [Q-0690]	2	72	200
Cc1c(C(=O)N2CCN3CCC[C@@H]3C2)cnn1-c1nn2cccc2c(=O)[nH]1 [Q-0693]	3	450	800
O=C(c1cnn(-c2nn3cccc3c(=O)[nH]2)c1)N1CCN2CCC[C@@H]2C1 [Q-0703]	4	190	600
Cc1c(C(=O)N2CCC(C(O)(C(F)(F)F)C(F)(F)F)CC2)cnn1-c1nn2cccc2c(=O)[nH]1 [Q-0721]	1	26	35
Cc1c(C(=O)N2CCN(CC(F)(F)F)CC2)cnn1-c1nc2c(c(=O)[nH]1)CCC2 [Q-0737]	5	37	200
Cc1c(C(=O)N2CCN(C(=O)OC(C)(C)C)CC2)cnn1-c1nn2cccc2c(=O)[nH]1 [Q-0750]	3	180	500
Cc1c(C(=O)N2CCN(CC(F)(F)F)CC2)cnn1-c1nn2cccc2c(=O)[nH]1 [Q-0760]	1	75	400
Cc1c(C(=O)N2CCC3(CC2)CC3(F)F)cnn1-c1nn2cccc2c(=O)[nH]1 [Q-0761]	2	140	200
Cc1c(C(=O)N2CCN(C3CC3)CC2)cnn1-c1nn2cccc2c(=O)[nH]1 [Q-0764]	2	100	300
Cc1c(C(=O)N2CCC3(CC2)CN(C(=O)OC(C)(C)C)C3)cnn1-c1nn2cccc2c(=O)[nH]1 [Q-0768]	2	45	200
Cc1c(C(=O)N2CC3(CCN(C(=O)OC(C)(C)C)CC3)C2)cnn1-c1nn2cccc2c(=O)[nH]1 [Q-0772]	1	72	200
CCC1(C#N)CCN(C(=O)c2nnn(-c3nn4cccc4c(=O)[nH]3)c2C)CC1 [Q-0777]	1	55	300
Cc1c(C(=O)N2CCC(C(C)(O)C(F)(F)F)CC2)cnn1-c1nn2cccc2c(=O)[nH]1 (stereo not drawn) [Q-0782]	1	38	100
Cc1c(C(=O)N2CCC(OCC(F)(F)F)CC2)cnn1-c1nn2cccc2c(=O)[nH]1 [Q-0784]	1	120	300
Cc1c(C(=O)N2CC(F)(F)C2)cnn1-c1nn2cccc2c(=O)[nH]1 [Q-0789]	8	440	2500

Structure (SMILES)	IC50 [1] [nM]	IC50 [2] [nM]	IC50 [3] [nM]
Cc1c(C(=O)N2CCC2)cnn1-c1nn2cccc2c(=O)[nH]1 [Q-0794]	10	410	3500
Cc1c(C(=O)N2C3CCC2CC(O)(c2ccccc2)C3)cnn1-c1nn2cccc2c(=O)[nH]1 (stereo not drawn) [Q-0797]	1	27	100
Cc1c(C(=O)N2CCC(C)(C#N)CC2)cnn1-c1nn2cccc2c(=O)[nH]1 [Q-0800]	2	47	600
Cc1c(C(=O)N2CC3CC(F)(F)C3C2)cnn1-c1nn2cccc2c(=O)[nH]1 (stereo not drawn) [Q-0804]	1	94	300
Cc1c(C(=O)N2CC(N3CCC(F)(F)C3)C2)cnn1-c1nn2cccc2c(=O)[nH]1 [Q-0812]	3	150	1000
Cc1c(C(=O)N2CC3(CCCC3)C2)cnn1-c1nn2cccc2c(=O)[nH]1 [Q-0813]	1	65	100
Cc1c(C(=O)N2CCC(O)(C3CC3)CC2)cnn1-c1nn2cccc2c(=O)[nH]1 [Q-0815]	1	72	100
Cc1c(C(=O)N2CC3(C2)CC(F)(F)C3)cnn1-c1nn2cccc2c(=O)[nH]1 [Q-0816]	1	170	600
Cc1c(C(=O)N2CCC(C3(C#N)CC3)CC2)cnn1-c1nn2cccc2c(=O)[nH]1 [Q-0817]	1	44	200
Cc1c(C(=O)N2CCN(C3CCC3)CC2)cnn1-c1nn2cccc2c(=O)[nH]1 [Q-0821]	1	51	100
Cc1c(C(=O)N2CC3(CSC3)C2)cnn1-c1nn2cccc2c(=O)[nH]1 [Q-0822]	2	130	400
Cc1c(C(=O)N2CCC(CC#N)CC2)cnn1-c1nn2cccc2c(=O)[nH]1 [Q-0825]	2	150	400
Cc1c(C(=O)N2CCN(c3ccc(Cl)cn3)CC2)cnn1-c1nn2cccc2c(=O)[nH]1 [Q-0835]	2	39	100
Cc1c(C(=O)N2CCN(c3ccc(C(F)(F)F)cn3)CC2)cnn1-c1nn2cccc2c(=O)[nH]1 [Q-0836]	5	52	300
Cc1c(C(=O)N2CC3CCC(C2)C3(O)C(F)(F)F)cnn1-c1nn2cccc2c(=O)[nH]1 (stereo not drawn) [Q-0837]	1	63	200
Cc1c(C(=O)N2CCC(C(C)C#N)CC2)cnn1-c1nn2cccc2c(=O)[nH]1 (stereo not drawn) [Q-0849]	1	44	300
Cc1c(C(=O)N2CC(N(C)C(=O)OC(C)(C)C)C2)cnn1-c1nn2cccc2c(=O)[nH]1 [Q-0850]	1	74	300
Cc1c(C(=O)N2CC[C@H](N(C)C(=O)OC(C)(C)C)C2)cnn1-c1nn2cccc2c(=O)[nH]1 [Q-0851]	2	130	500
Cc1c(C(=O)N2CC(C)(NC(=O)OC(C)(C)C)C2)cnn1-c1nn2cccc2c(=O)[nH]1 [Q-0867]	2	70	400
Cc1c(C(=O)N2CCN(C(=O)OC(C)(C)C)C(C)C2)cnn1-c1nn2cccc2c(=O)[nH]1 (stereo not drawn) [Q-0887]	1	57	200
